Patent US8735398B2 (Bristol-Myers Squibb Company, priority 2009, dated 2014)

The molecules below were run on HCV 1b genotype (assay: HCV replicon assay (HCV-neo replicon cells, wild-type)). Conditions: HCV 1b genotype replicon; class symbol; read-out: EC50 Range against HCV 1b.
Format: cell-based, Hepatitis C virus
Method in brief: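 Inhibition was tested in replicon-bearing cells, both wild-type HCV-neo and lines with NS5A resistance substitutions, using the O'Boyle et al. 2005 replicon method or luciferase-reporter formats.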
For `O=C(Nc1ccc(-c2cnc(-c3ccc(NC(=O)[C@@H]4CCCN4C(=O)[C@@H]4C[C@@H]5C[C@@H]5N4C(=O)c4ccc(Cl)cc4Cl)cc3)o2)cc1)[C@@H]1CCCN1C(=O)[C@@H]1C[C@@H]2C[C@@H]2N1C(=O)c1ccc(Cl)cc1Cl` [Example D-26, (S,S,S,2S,2′S)-N,N′-(4,4′-(oxazole-2,5-diyl)bis(4,1-phenylene))bis(1-((1S,3S,5S)-2-(2,4-dichlorobenzoyl)-2-azabicyclo[3.1.0]hexane-3-carbonyl)pyrrolidine-2-carboxamide)], the EC50 was 1000 to 10000 nM. `O=C(Nc1ccc(-c2ccc(-c3ccc(NC(=O)[C@@H]4CCCN4C(=O)[C@H](O)c4ccccc4)cc3)o2)cc1)[C@@H]1CCCN1C(=O)[C@H](O)c1ccccc1` [JG-57, (2S,2′S)-N,N′-(2,5-furandiyldi-4,1-phenylene)bis(1-((2R)-2-hydroxy-2-phenylacetyl)-2-pyrrolidinecarboxamide)] was tested, and the EC50 was 100 to 999 nM.

Same assay, conditions: HCV 1b genotype replicon; class symbols; read-out: EC50 Range against HCV 1b
Molecule `C[C@H](NC(=O)[C@@H]1CCCO1)C(=O)Nc1ccc(-c2nnc(-c3ccc(NC(=O)[C@H](C)NC(=O)[C@@H]4CCCO4)cc3)o2)cc1` [RK-34, (2S,2′S)-N,N′-(1,3,4-oxadiazole-2,5-diylbis(4,1-phenyleneimino((2S)-1-oxo-1,2-propanediyl)))ditetrahydro-2-furancarboxamide] has an EC50 of 1000 to 10000 nM.

Same assay, conditions: HCV 1b genotype replicon; read-out: EC50 1b
`O=C(Nc1ccc(-c2cnc(-c3ccc(NC(=O)[C@@H]4CCCN4C(=O)[C@@H]4C[C@@H]5C[C@@H]5N4C(=O)c4ccc(Cl)cc4Cl)cc3)o2)cc1)[C@@H]1CCCN1C(=O)[C@@H]1C[C@@H]2C[C@@H]2N1C(=O)c1ccc(Cl)cc1Cl` [Example D-26, (S,S,S,2S,2′S)-N,N′-(4,4′-(oxazole-2,5-diyl)bis(4,1-phenylene))bis(1-((1S,3S,5S)-2-(2,4-dichlorobenzoyl)-2-azabicyclo[3.1.0]hexane-3-carbonyl)pyrrolidine-2-carboxamide)] was tested, and the EC50 was 3330 nM.

Same assay, conditions: Hepatitis C virus, HCV 1b genotype replicon; class symbol; read-out: EC50 Range against HCV 1b
Work on `CO[C@@H](C(=O)N1CCC[C@H]1C(=O)Nc1ccc(-c2cnc(-c3ccc(NC(=O)[C@@H]4CCCN4C(=O)[C@H](OC)c4ccccc4)cc3)o2)cc1)c1ccccc1` [JG-25, (2S,2′S)-N,N′-(1,3-oxazole-2,5-diyldi-4,1-phenylene)bis(1-((2R)-2-methoxy-2-phenylacetyl)-2-pyrrolidinecarboxamide)] yielded an EC50 of 4.57 to 99 nM. `C[C@H](NC(=O)c1ccco1)C(=O)Nc1ccc(-c2nnc(-c3ccc(NC(=O)[C@H](C)NC(=O)c4ccco4)cc3)o2)cc1` [RK-21, N,N′-(1,3,4-oxadiazole-2,5-diylbis(4,1-phenyleneimino((2S)-1-oxo-1,2-propanediyl)))di(2-furamide)] was tested, and the EC50 was 1000 to 10000 nM. With `C[C@H](NC(=O)[C@@](C)(O)c1ccccc1)C(=O)Nc1ccc(-c2cc(-c3ccc(NC(=O)[C@H](C)NC(=O)[C@@](C)(O)c4ccccc4)cc3)[nH]n2)cc1` [OL-45, (2S,2′S)-N,N′-(1H-pyrazole-3,5-diylbis(4,1-phenyleneimino((2S)-1-oxo-1,2-propanediyl)))bis(2-hydroxy-2-phenylpropanamide)] the EC50 was under 4.57 nM. `CO[C@@H](C(=O)N1CCC[C@H]1C(=O)Nc1ccc(-c2cc(-c3ccc(NC(=O)[C@@H]4CCCN4C(=O)[C@H](OC)c4ccccc4)cc3)[nH]n2)cc1)c1ccccc1` [JG-37, (2S,2′S)-N,N′-(1H-pyrazole-3,5-diyldi-4,1-phenylene)bis(1-((2R)-2-methoxy-2-phenylacetyl)-2-pyrrolidinecarboxamide)] was tested, and the EC50 was under 4.57 nM. `COc1cccc2c(C(=O)N3CCC[C@H]3C(=O)Nc3ccc(-c4nnc(-c5ccc(NC(=O)[C@@H]6CCCN6C(=O)c6nc(Cl)cc7c(OC)cccc67)cc5)o4)cc3)nc(Cl)cc12` [RK-32, (2S,2′S)-N,N′-(1,3,4-oxadiazole-2,5-diyldi-4,1-phenylene)bis(1-((3-chloro-5-methoxy-1-isoquinolinyl)carbonyl)-2-pyrrolidinecarboxamide)] was tested, and the EC50 was 100 to 999 nM. `C[C@@](O)(C(=O)N1CCC[C@H]1C(=O)Nc1ccc(-c2cc(-c3ccc(NC(=O)[C@@H]4CCCN4C(=O)[C@@](C)(O)c4ccccc4)cc3)[nH]n2)cc1)c1ccccc1` [JG-39, (2S,2′S)-N,N′-(1H-pyrazole-3,5-diyldi-4,1-phenylene)bis(1-((2S)-2-hydroxy-2-phenylpropanoyl)-2-pyrrolidinecarboxamide)] gave an EC50 of under 4.57 nM. In the case of `Cc1nc(-c2ccc(NC(=O)[C@H](C)NC(=O)OCc3ccccc3)cc2)c(-c2ccc(NC(=O)[C@H](C)NC(=O)OCc3ccccc3)cc2)o1` [OL-4, [(2-methyl-4,5-oxazolediyl)bis[4,1-phenyleneimino[(1S)-1-methyl-2-oxo-2,1-ethanediyl]]]bis-carbamic acid, bis(phenylmethyl) ester], the EC50 is reported as 100 to 999 nM. For `O=C(Nc1ccc(-c2ccc(-c3ccc(NC(=O)[C@@H]4CCCN4C(=O)c4nc(Cl)cc5ccccc45)cc3)o2)cc1)[C@@H]1CCCN1C(=O)c1nc(Cl)cc2ccccc12` [JG-61, (2S,2′S)-N,N′-(2,5-furandiyldi-4,1-phenylene)bis(1-((3-chloro-1-isoquinolinyl)carbonyl)-2-pyrrolidinecarboxamide)], the EC50 was 1000 to 10000 nM. In the case of `CN(C)[C@@H](C(=O)N1CCCC1(C)C(=O)N1CCC[C@H]1C(=O)Nc1ccc(-c2cnc(-c3ccc(NC(=O)[C@@H]4CCCN4C(=O)C4(C)CCCN4C(=O)[C@@H](c4ccccc4)N(C)C)cc3)o2)cc1)c1ccccc1` (stereo partly drawn) [Example D-41, (2S,2′S)-N,N′-(1,3-oxazole-2,5-diyldi-4,1-phenylene)bis(1-((1-((2R)-2-(dimethylamino)-2-phenylacetyl)-2-methyl-2-pyrrolidinyl)carbonyl)-2-pyrrolidinecarboxamide)], the EC50 is reported as 100 to 999 nM. `CC(=O)N1CCC[C@H]1C(=O)Nc1ccc(-c2cnc(-c3ccc(NC(=O)[C@@H]4CCCN4C(C)=O)cc3)o2)cc1` [JG-11, (2S,2′S)-N,N′-(1,3-oxazole-2,5-diyldi-4,1-phenylene)bis(1-acetyl-2-pyrrolidinecarboxamide)] was tested, and the EC50 was 1000 to 10000 nM. For `CN(C)[C@@H](C(=O)N1CCCC1C(=O)Nc1ccc(-c2ncc(-c3ccc(NC(=O)[C@@H]4CCCN4C(=O)[C@@H](c4ccccc4)N(C)C)cc3)o2)cc1)c1ccccc1` (stereo partly drawn) [OL-51, (2S)-N,N′-(1,3-oxazole-2,5-diyldi-4,1-phenylene)bis(1-((2R)-2-(dimethylamino)-2-phenylacetyl)-2-pyrrolidinecarboxamide)], the EC50 was 4.57 to 99 nM.

Same assay, conditions: Hepatitis C virus, HCV 1b genotype replicon; class symbols; read-out: EC50 Range against HCV 1b
`O=C(Nc1ccc(-c2cnc(-c3ccc(NC(=O)[C@@H]4CCCN4C(=O)C4CCCO4)cc3)o2)cc1)[C@@H]1CCCN1C(=O)C1CCCO1` (stereo partly drawn) [XY-31, (2S,2′S)-N,N′-(1,3-oxazole-2,5-diyldi-4,1-phenylene)bis(1-(tetrahydro-2-furanylcarbonyl)-2-pyrrolidinecarboxamide)] was tested, and the EC50 was 4.57 to 99 nM. Work on `Cn1cnc(CC(=O)N2CCC[C@H]2C(=O)Nc2ccc(-c3cnc(-c4ccc(NC(=O)[C@@H]5CCCN5C(=O)Cc5cn(C)cn5)cc4)o3)cc2)c1` [XY-42, (2S,2′S)-N,N′-(1,3-oxazole-2,5-diyldi-4,1-phenylene)bis(1-((1-methyl-1H-imidazol-4-yl)acetyl)-2-pyrrolidinecarboxamide)] yielded an EC50 of 1000 to 10000 nM. `O=C(Nc1ccc(-c2cnc(-c3ccc(NC(=O)[C@@H]4C[C@@H](O)CN4C(=O)C4CC4)cc3)o2)cc1)[C@@H]1C[C@@H](O)CN1C(=O)C1CC1` [XY-57, (2S,4R,2′S,4′R)-N,N′-(1,3-oxazole-2,5-diyldi-4,1-phenylene)bis(1-(cyclopropylcarbonyl)-4-hydroxy-2-pyrrolidinecarboxamide)] gave an EC50 of 1000 to 10000 nM. `CO[C@@H](C(=O)N1CCC[C@H]1C(=O)Nc1ccc(-c2cnc(-c3ccc(NC(=O)[C@@H]4CCCN4C(=O)[C@H](OC)c4ccccc4)cc3)o2)cc1)c1ccccc1` [XY-26, (2S,2′S)-N,N′-(1,3-oxazole-2,5-diyldi-4,1-phenylene)bis(1-((2R)-2-methoxy-2-phenylacetyl)-2-pyrrolidinecarboxamide)] gave an EC50 of 1000 to 10000 nM. For `O=C(Nc1ccc(-c2cnc(-c3ccc(NC(=O)[C@@H]4CCCN4C(=O)c4ccc5c(c4)OCO5)cc3)o2)cc1)[C@@H]1CCCN1C(=O)c1ccc2c(c1)OCO2` [XY-36, (2S,2′S)-N,N′-(1,3-oxazole-2,5-diyldi-4,1-phenylene)bis(1-(1,3-benzodioxol-5-ylcarbonyl)-2-pyrrolidinecarboxamide)], the EC50 was 100 to 999 nM. `C[C@H](NC(=O)[C@H](c1ccccc1)N(C)C)C(=O)Nc1ccc(-c2nnc(-c3ccc(NC(=O)[C@H](C)NC(=O)[C@H](c4ccccc4)N(C)C)cc3)o2)cc1` [RK-38, (2S,2′S)-N,N′-(1,3,4-oxadiazole-2,5-diyldi-4,1-phenylene)bis(2-(((2S)-2-(dimethylamino)-2-phenylacetyl)amino)propanamide)] showed an EC50 of under 4.57 nM. With `Cc1cccc(CC(=O)N2C[C@H](O)C[C@H]2C(=O)Nc2ccc(-c3cnc(-c4ccc(NC(=O)[C@@H]5C[C@@H](O)CN5C(=O)Cc5cccc(C)c5)cc4)o3)cc2)c1` [XY-51, (2S,4R,2′S,4′R)-N,N′-(1,3-oxazole-2,5-diyldi-4,1-phenylene)bis(4-hydroxy-1-((3-methylphenyl)acetyl)-2-pyrrolidinecarboxamide)] the EC50 was 100 to 999 nM. In the case of `O=C(Nc1ccc(-c2cnc(-c3ccc(NC(=O)[C@@H]4CCCN4C(=O)c4cc(F)cc(F)c4)cc3)o2)cc1)[C@@H]1CCCN1C(=O)c1cc(F)cc(F)c1` [XY-7, (2S,2′S)-N,N′-(1,3-oxazole-2,5-diyldi-4,1-phenylene)bis(1-(3,5-difluorobenzoyl)-2-pyrrolidinecarboxamide)], the EC50 is reported as 100 to 999 nM. In the case of `CCCC(C)(C)C(=O)N1CCC[C@H]1C(=O)Nc1ccc(-c2cnc(-c3ccc(NC(=O)[C@@H]4CCCN4C(=O)C(C)(C)CCC)cc3)o2)cc1` [XY-19, (2S,2′S)-N,N′-(1,3-oxazole-2,5-diyldi-4,1-phenylene)bis(1-(2,2-dimethylpentanoyl)-2-pyrrolidinecarboxamide)], the EC50 is reported as 1000 to 10000 nM. With `O=C(Nc1ccc(-c2cnc(-c3ccc(NC(=O)[C@@H]4CCCN4C(=O)C(O)C(F)(F)F)cc3)o2)cc1)[C@@H]1CCCN1C(=O)C(O)C(F)(F)F` (stereo partly drawn) [JR-2, (2S,2′S)-N,N′-(2,5-oxazolediyldi-4,1-phenylene)bis[1-(3,3,3-trifluoro-2-hydroxy-1-oxopropyl)-2-pyrrolidinecarboxamide]] the EC50 was 100 to 999 nM. With `Cc1cc(CC(=O)N2C[C@H](O)C[C@H]2C(=O)Nc2ccc(-c3cnc(-c4ccc(NC(=O)[C@@H]5C[C@@H](O)CN5C(=O)Cc5cc(C)no5)cc4)o3)cc2)on1` [XY-52, (2S,4R,2′S,4′R)-N,N′-(1,3-oxazole-2,5-diyldi-4,1-phenylene)bis(4-hydroxy-1-((3-methyl-5-isoxazolyl)acetyl)-2-pyrrolidinecarboxamide)] the EC50 was 1000 to 10000 nM.

Same assay, conditions: Hepatitis C virus, HCV 1b genotype replicon; read-out: EC50 1b
`O=C(Nc1ccc(-c2cnc(-c3ccc(NC(=O)[C@@H]4CCCN4C(=O)C4CCCO4)cc3)o2)cc1)[C@@H]1CCCN1C(=O)C1CCCO1` (stereo partly drawn) [XY-31, (2S,2′S)-N,N′-(1,3-oxazole-2,5-diyldi-4,1-phenylene)bis(1-(tetrahydro-2-furanylcarbonyl)-2-pyrrolidinecarboxamide)] gave an EC50 of 54 nM. In the case of `C[C@@](O)(C(=O)N1CCC[C@H]1C(=O)Nc1ccc(-c2cc(-c3ccc(NC(=O)[C@@H]4CCCN4C(=O)[C@@](C)(O)c4ccccc4)cc3)[nH]n2)cc1)c1ccccc1` [JG-39, (2S,2′S)-N,N′-(1H-pyrazole-3,5-diyldi-4,1-phenylene)bis(1-((2S)-2-hydroxy-2-phenylpropanoyl)-2-pyrrolidinecarboxamide)], the EC50 is reported as under 5 nM. In the case of `C[C@H](NC(=O)[C@H](c1ccccc1)N(C)C)C(=O)Nc1ccc(-c2nnc(-c3ccc(NC(=O)[C@H](C)NC(=O)[C@H](c4ccccc4)N(C)C)cc3)o2)cc1` [RK-38, (2S,2′S)-N,N′-(1,3,4-oxadiazole-2,5-diyldi-4,1-phenylene)bis(2-(((2S)-2-(dimethylamino)-2-phenylacetyl)amino)propanamide)], the EC50 is reported as under 5 nM. `Cc1nc(-c2ccc(NC(=O)[C@H](C)NC(=O)OCc3ccccc3)cc2)c(-c2ccc(NC(=O)[C@H](C)NC(=O)OCc3ccccc3)cc2)o1` [OL-4, [(2-methyl-4,5-oxazolediyl)bis[4,1-phenyleneimino[(1S)-1-methyl-2-oxo-2,1-ethanediyl]]]bis-carbamic acid, bis(phenylmethyl) ester] gave an EC50 of 220 nM.
